Measurements taken from patent US20250108036A1, “COMPOSITIONS FOR REMOVING SENESCENT CELLS AND USES THEREOF” (LIFECEUTIX CO., LTD., priority 2021, published 2025).

Key:
[1] = frailty tests (open field, wire hanging, grip strength, muscle mass) in naturally aged mice (Example 7-7); format: in vivo, C57BL6J mice
Procedure: (§1) After 22-month-old female C57BL6J mice (purchased from KRIBB Laboratory Animal Resource Center) were adapted to the experimental environment for one week, the aged mice were randomized into an experimental group and a control group. 8-week-old mice that were not aged were used as controls. LX-112 was mixed with 0.5% CMC-Na solution (purchased from Sigma) and administered orally at a concentration of 70 mg/kg daily for 21 days. The control group was administered only the solution in the same volume. After drug administration was completed, the method described in each Example below was performed.
To analyze aging-related senescence in mice, activity evaluation (open field test), endurance evaluation (wire hanging test), and muscle strength and grip strength test (grip strength test) were performed. Specifically, in the open field test, the mouse was placed in a white square box and the trajectory it moved for a certain period of time was measured. The measurement results were compared by analyzing the ratio of time spent in the central area to the total time. In the wire hanging test, the time the mouse could endure hanging on a wire was measured. In the muscle strength and grip test (grip strength test), the mouse was made to hold the grip strength measuring device (purchased from Jeongdo B&P) with its front paws by holding its tail, then pulled slightly until it missed, and the force applied to the measuring device just before missing was measured. […] Table 33 calculates the amount of each evaluation after induced aging as 100% and compares it with the amount of each evaluation after treatment with LX-112.

[2] = test system: SAOS-2; assay: CellTiter-Glo cell viability of senescent SAOS-2 cancer cells (Example 2-2); format: cell-based, human; settings: DOX → LX (LX-112 5 μM)
Procedure: The standard for treating various cancers, including osteosarcoma, is repeated chemotherapy. Accordingly, aging was induced in SAOS-2 in the same manner as in Example 2-1, and then (i) treated again with doxorubicin (DOX→DOX) or (ii) treated with the LX-112 (5 μM) composition (DOX→LX-112).

[3] = skin aging (dermal thickness, collagen mRNA) in naturally aged mice (Example 7-9); format: in vivo, C57BL6J mice
Procedure: as §1
Frozen sections of skin tissue were stained with H/E (Hematoxylin/Eosin), and the thickness of the dermis was observed under an optical microscope. Additionally, the mRNA amount of collagen (COL1A1) was measured by qRT-PCR as described in Example 7-2.

[4] = open field test in obesity-aged mice (Example 9-4); format: in vivo, C57BL6J mice; settings: LX-112 70 mg/kg oral daily 21 days, DIO without LX = 100%
Procedure: (§2) 15-week-old male C57BL6J mice (purchased from Jackson Laboratories), whose obesity was induced by a high-fat diet, were adapted to the experimental environment for one week, and then the mice were randomized into an experimental group and a control group. LX-112 was mixed with 0.5% CMC-Na solution (purchased from Sigma) and administered orally at a concentration of 70 mg/kg daily for 21 days. The control group was administered only the solution in the same volume. After drug administration was completed, the method described in each Example below was performed. Mice were sacrificed and the weight of adipose tissue in each area was measured.
Accordingly, the open field test was performed to analyze lethargy due to anxiety and depression caused by obesity in mice using the same method as Example 7-7. […] Table 58 calculates the amounts of activity after aging induced by obesity as 100% and compares it with the amount of activity evaluation after treatment with LX-112.

[5] = test system: HMGB1; assay: HMGB1 ELISA in culture medium of senescent foreskin cells (Example 10, Table 62); format: cell-based, human
Procedure: After 6 hours, the amounts of HMGB1 and HMGN1 secreted into the cell culture medium were measured using an enzyme-linked immunosorbent assay (ELISA Kit, purchased from AssayGenie).

[6] = chlorhexidine gluconate-induced peritoneal fibrosis in mice (Example 6-2); format: in vivo, C57BL6J mice; settings: 0.1% CHG 10 ml/kg i.p. every 2 days for 20 days; LX-112 70 mg/kg i.p. daily from day 9
Procedure: After 8-week-old male C57BL6J mice (purchased from KRIBB Laboratory Animal Resource Center) were adapted to the experimental environment for 1 week, the mice were randomized into an experimental group and a control group. To induce peritoneal fibrosis, 0.1% chlorhexidine gluconate (CHG, purchased from Sigma) was dissolved in 15% ethanol phosphate buffer solution and administered intraperitoneally at a concentration of 10 ml/kg every 2 days for 20 days. From day 9, LX-112 was mixed with 0.5% CMC-Na solution (purchased from Sigma) and administered intraperitoneally at a concentration of 70 mg/kg every day. The control group (−) was administered only the solution in the same volume. On the 20th day, paraffin sections of peritoneal tissue prepared by fixation in 4% paraformaldehyde solution were stained with H/E (Hematoxylin/Eosin) and trichrome, and the thickness of the peritoneal mesothelial cell layer was measured under a light microscope.

[7] = test system: IL6, activin A; assay: serum IL6 and activin A ELISA in obesity-aged mice (Example 9-3); format: in vivo, C57BL6J mice; settings: LX-112 70 mg/kg oral daily 21 days
Procedure: as §2
Using the same method as in Example 7-5, the amount of IL6 and activin A, which are aging-related inflammation secretory factors (SASP), were measured in serum collected from mice using an enzyme-linked immunosorbent assay (ELISA Kit, purchased from R&D Systems).

[8] = test system: p16, p21; assay: p16 and p21 mRNA qRT-PCR in obesity-aged (DIO) mice (Example 9-2); format: in vivo, C57BL6J mice; settings: LX-112 70 mg/kg oral daily 21 days, DIO without LX = 100%
Procedure: as §2
Mice were sacrificed in the same manner as in Example 7-2, RNA was extracted from the organ tissue of each region, and qRT-PCR (quantitative real-time PCR) was performed and analyzed using the synthesized cDNA. […] Table 54 calculates the mRNA amounts of p16 and p21 after aging induced by obesity as 100% and compares them with the mRNA amounts of p16 and p21 after treatment with LX-112.

[9] = test system: A549; assay: CellTiter-Glo cell viability of senescent A549 cancer cells (Example 12, Table 67); format: cell-based, human; settings: Homo sapiens, A549, doxorubicin-induced senescent A549 cancer cells, 1.1 μM test compound, CellTiter-Glo; read-out: Survival (%)
[10] = LX-112 70 mg/kg oral daily 21 days, aged untreated = 100%

O=c1c2ccccc2[se]n1CCn1[se]c2ccccc2c1=O [LX-112, 1,2-[bis(1,2-benzisoselenazolone-3(2H)-ketone)]ethane]
weight of overall fat tissue ([1]; LX-112): increased
Grip Sterenght Test Strength (%) [1, 10]: 132 (±11) %
Open Field Test Time in Center (%) [1, 10]: 121 (±9) %
Wire Hanging Test Time (%) [1, 10]: 119 (±10) %
Muscle Mass (g) ([1]; quadriceps and gastrocnemius, LX-112 70 mg/kg oral daily 21 days): 0.7 (±0.1) g
Survival (%) ([2]; 3 d): 35 (±4) %
Survival (%) ([2]; 7 d): 14 (±5) %
Collagen mRNA (Fold) ([3]; COL1A1, skin, LX-112, aged untreated = 1): 2.3 (±0.4) Fold
Dermal Thickness (μm) ([3]; LX-112 70 mg/kg oral daily 21 days): 265 (±17.2) μm
Open Field Test Time in Center (%) [4]: 137.5 (±15) %
HMGB1 (pg/ml) ([5]; 10 μM, culture medium after 6 hours, senescent foreskin cells): 454.9 (±22.4) pg/ml
HMGB1 secreted in the culture medium from dying senescent cells ([5]; ABT-263 1 μM or LX-112 10 μM, 6 hours): little change
Submesothelial Thickness (μm) [6]: 43.1 (±10.4) μm
Activin A (%) [7]: 64.5 (±12.3) %
IL6 (%) [7]: 51.8 (±14.2) %
p16 mRNA (%) Liver [8]: 71.3%
p16 mRNA (%) Lung [8]: 81%
p16 mRNA (%) Muscle [8]: 77.8%
p16 mRNA (%) Skin [8]: 79.1%
p16 mRNA (%) asWAT [8]: 84.1%
p16 mRNA (%) eWAT [8]: 61.2%
p16 mRNA (%) iBAT [8]: 89.2%
p16 mRNA (%) iWAT [8]: 79.1%
p21 mRNA (%) Liver [8]: 62.9%
p21 mRNA (%) Lung [8]: 79.3%
p21 mRNA (%) Muscle [8]: 73.2%
p21 mRNA (%) Skin [8]: 78.1%
p21 mRNA (%) asWAT [8]: 82.1%
p21 mRNA (%) eWAT [8]: 67.2%
p21 mRNA (%) iBAT [8]: 70%
p21 mRNA (%) iWAT [8]: 71.2%

COC(=O)c1ccc([C@H]2c3[nH]c4ccccc4c3C[C@H](C(=O)OC)N2C(=O)CCl)cc1 [LX-405]
viability at 1.1 µM [9]: 23.8%
